Tested on: UBCLP expression in LNCaP cells
Assay: Expression of UBCLP in LNCaP prostate cancer cells treated with casodex or R1881
Format: cell-based, human
Details: 100 nM casodex versus 1 nM R1881, RPMI-1640 with 5% charcoal stripped serum, mRNA expression analysis
Description: In order to examine the effect of casodex, an anti-androgen, on the expression of UBCLP, LNCaP cells (androgen-responsive prostate cancer cells) were grown to 70% confluence in RPMI-1640 supplemented with 10% FBS. The cultures were then pretreated for 24 hours in dye-free RPMI-1640 containing 5% charcoal stripped serum. The cultures were then treated with either 1 nM R1881 or 100 nM casodex in RPMI-1640 containing 5% charcoal stripped serum prior to harvesting an extraction of total mRNA for expression analysis.
In CWR22 cells (a human primary prostate xenograft cell line; Wainstein et al. (1994) Cancer Res. 54:6059-52) implanted in male nude mice, UBCLP expression levels decrease about 5-fold in 21 days after castration. In CWR22R cells (Chen et al. (1998) Cancer Res 58:2777-83), an androgen-independent variant of CWR22 cells, UBCLP appears to be constitutively expressed with respect to androgen.

## CC(O)(CS(=O)(=O)c1ccc(F)cc1)C(=O)Nc1ccc(C#N)c(C(F)(F)F)c1 (stereo not shown) [Casodex]
  drop in UBCLP expression: 3 fold

— patent US6485921B1, “UBCLP and uses thereof” (Millennium Pharmaceuticals, Inc., priority 1998, dated 2002)
